Data published in patent publication US20100278751A1, “RADIOLABELED 2-AMINO-4-ALKYL-6-(HALOALKYL)PYRIDINE COMPOUNDS AND THEIR USE IN DIAGNOSTIC IMAGING” (WASHINGTON UNIVERSITY, priority 2009, published 2010).
Read-outs that look alike come from different tables or passages of the source. Each block holds one compound with its values, some of them ahead of it.

Key:
[1] = molecular target: T1, iNOS (Mus musculus, UniProt P29477); assay: Blocking studies of tracer uptake in LPS-treated mice; format: in vivo
T1 construct: from tissue
Protocol: This example describes blocking studies. […] P., et al., J. Biol. Chem. 272: 4959-4963, 1997). […] At 1 h post injection, % ID in lung was determined.

[2] = molecular target: T2, iNOS (Homo sapiens, UniProt P35228); conditions: cited from earlier work
[3] = molecular target: T2, iNOS; assay: iNOS activity, nitric oxide synthase screening kit (IC50); format: biochemical
[4] = molecular target: eNOS (Homo sapiens, UniProt P29474); assay: eNOS selectivity, nitric oxide synthase screening kit (IC50); format: biochemical
Protocol: (§1) All assays were performed using the nitric oxide synthase screening kit (GE Healthcare Biosciences Corp., Piscataway, N.J.) following the manufacturer's protocols.

[5] = molecular target: nNOS (Homo sapiens, UniProt P29475); assay: nNOS selectivity, nitric oxide synthase screening kit (IC50); format: biochemical
Protocol: as §1

[6] = Biodistribution in control vs. LPS treated mice; format: in vivo, C57BL/6 mice
Protocol: This example describes the results of in vivo studies on the biodistribution of iNOS inhibitors. The biodistribution studies were performed in mature male C57BL/6 mice. One group of mice was treated with bacterial lipopolysaccharide (LPS) (10 mg/kg, administered intravenously) to induce iNOS expression, and a control group was left untreated.

[7] = In vivo stability (percent parent compound in plasma/blood) in rats; design: species or system Sprague-Dawley rats
Protocol: Adult male Sprague-Dawley rats were injected with [^18F]compound 14, and at 5 and 30 minutes post injection, plasma samples were obtained. Supernatants from the plasma samples were analyzed by silica gel radio-TLC and reversed phase HPLC. After 30 minutes, the percent parent compound was only 20.2%. Additionally, within 5 minutes post injection, only 40.3% of the activity in the blood was [^18F]compound 14, which was confirmed by HPLC co-elution with non-radioactive compound 14. According to the HPLC analysis, the major metabolite, constituting 50% of the activity in blood at 5 minutes post injection, was very polar but was not free [^18F] fluoride. This observation is also consistent with the low bone uptake reported in biodistribution studies.

[8] = In vitro stability in heparinized rat whole blood; format: in vitro ADME, Sprague-Dawley rat; conditions: 37° C.
Protocol: The in vitro stability of [^18F]compound 14 was tested by using heparinized blood from an adult male Sprague-Dawley rat. [^18F]compound 14 was relatively stable in the whole blood for 2 h at 37° C. At 1 h, approximately 80% of the activity recovered from lysed whole blood was observed as [^18F]compound 14, and at 2 h, approximately 75% of the recovered activity was still in the form of [^18F]compound 14.

[9] = molecular target: T1, iNOS; assay: microPET imaging study in LPS-treated and control mice; format: in vivo; conditions: LPS intratracheally treated mouse vs control mouse
Protocol: Two mice, one intratracheally treated with LPS, and a control mouse, were injected with [^18F]compound 14. […] This difference in tracer accumulation is consistent with the difference in accumulation of iNOS described between LPS-treated and control mice in the preceeding examples.

[10] = iNOS, read-out: IC50 (standards for measuring IC50)
[11] = iNOS, read-out: IC50 of tested compounds
[12] = measured against SEITU, L-NIL and 2-AP as standards, read-out: IC50 for iNOS
[13] = read-out: Selectivity (IC50) iNOS

T2 sequence (P35228 whole entry): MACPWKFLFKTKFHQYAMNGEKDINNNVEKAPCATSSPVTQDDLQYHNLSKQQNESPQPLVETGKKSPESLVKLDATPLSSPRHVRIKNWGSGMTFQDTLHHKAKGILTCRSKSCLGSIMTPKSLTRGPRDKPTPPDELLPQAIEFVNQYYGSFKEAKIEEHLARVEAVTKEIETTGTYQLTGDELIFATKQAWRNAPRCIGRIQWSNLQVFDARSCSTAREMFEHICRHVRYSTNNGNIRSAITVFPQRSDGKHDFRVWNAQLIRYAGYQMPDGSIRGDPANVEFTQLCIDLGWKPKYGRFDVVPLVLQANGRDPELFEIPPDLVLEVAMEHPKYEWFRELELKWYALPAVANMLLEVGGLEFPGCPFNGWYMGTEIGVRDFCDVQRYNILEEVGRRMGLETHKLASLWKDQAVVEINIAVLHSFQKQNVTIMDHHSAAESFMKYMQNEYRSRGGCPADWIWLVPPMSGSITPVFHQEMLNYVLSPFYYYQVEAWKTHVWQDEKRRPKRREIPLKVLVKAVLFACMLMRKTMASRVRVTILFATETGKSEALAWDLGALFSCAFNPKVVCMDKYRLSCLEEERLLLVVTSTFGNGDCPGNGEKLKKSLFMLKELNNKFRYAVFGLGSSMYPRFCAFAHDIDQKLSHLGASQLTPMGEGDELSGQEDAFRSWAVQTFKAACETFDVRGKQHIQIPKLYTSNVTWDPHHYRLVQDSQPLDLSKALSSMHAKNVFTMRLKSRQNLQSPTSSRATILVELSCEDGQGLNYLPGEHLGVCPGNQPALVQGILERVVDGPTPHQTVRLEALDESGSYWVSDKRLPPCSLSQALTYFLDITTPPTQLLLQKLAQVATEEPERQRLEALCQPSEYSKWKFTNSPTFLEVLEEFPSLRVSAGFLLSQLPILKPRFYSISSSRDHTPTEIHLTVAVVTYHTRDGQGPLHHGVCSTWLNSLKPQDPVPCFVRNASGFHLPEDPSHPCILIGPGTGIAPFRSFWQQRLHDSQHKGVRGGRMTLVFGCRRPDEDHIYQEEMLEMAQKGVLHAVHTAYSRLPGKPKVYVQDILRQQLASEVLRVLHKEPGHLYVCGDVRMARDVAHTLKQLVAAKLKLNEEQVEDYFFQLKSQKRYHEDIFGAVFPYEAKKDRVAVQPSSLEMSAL

- IC50 [3, 11]: 0.193 ± 0.038 µM
- melting point: 59 to 61 °C
Compound: Cc1cc(N)nc(CC(C)C)c1 [Compound 11]

- IC50 [4]: 1.52 ± 0.3 µM
- IC50 [5]: 0.493 ± 0.0808 µM
- IC50 [3, 11]: 0.0543 ± 0.0089 µM
- IC50 [3, 12]: < 0.19 µM
- IC50 [3, 13]: 0.0543 ± 0.0089 µM
Compound: Cc1cc(N)nc(CC(C)F)c1 (stereo not shown) [Compound 14]

- IC50 [3, 11]: 0.685 ± 0.127 µM
Compound: CC(C)=Cc1cc(C)cc(N)n1 [Compound 25]

- IC50 [3, 11]: 0.282 ± 0.0486 µM
Compound: C/C=C/c1cc(C)cc(N)n1 [DZ(III)-73]

- IC50 [3, 11]: 1.78 ± 0.395 µM
Compound: Cc1cc(N)nc(CC(C)O)c1 (stereo not shown) [DZ(III)-77/Compound 14]

- Biodistribution Blood ([6]; Control mice, 5 min): 2.37 ± 0.18 % ID/g
- Biodistribution Bone ([6]; Control mice, 5 min): 1.52 ± 0.36 % ID/g
- Biodistribution Brain ([6]; Control mice, 5 min): 1.60 ± 0.17 % ID/g
- Biodistribution Heart ([6]; Control mice, 5 min): 1.50 ± 0.12 % ID/g
- Biodistribution Kidney ([6]; Control mice, 5 min): 20.6 ± 2.4 % ID/g
- Biodistribution Liver ([6]; Control mice, 5 min): 33.2 ± 3.3 % ID/g
- Biodistribution Lung ([6]; Control mice, 5 min): 3.33 ± 0.28 % ID/g
- Biodistribution Muscle ([6]; Control mice, 5 min): 1.25 ± 0.06 % ID/g
- Biodistribution Blood ([6]; Control mice, 30 min): 1.22 ± 0.16 % ID/g
- Biodistribution Bone ([6]; Control mice, 30 min): 2.26 ± 0.55 % ID/g
- Biodistribution Brain ([6]; Control mice, 30 min): 0.28 ± 0.02 % ID/g
- Biodistribution Heart ([6]; Control mice, 30 min): 0.60 ± 0.05 % ID/g
- Biodistribution Kidney ([6]; Control mice, 30 min): 7.30 ± 0.66 % ID/g
- Biodistribution Liver ([6]; Control mice, 30 min): 10.7 ± 0.3 % ID/g
- Biodistribution Lung ([6]; Control mice, 30 min): 1.14 ± 0.13 % ID/g
- Biodistribution Muscle ([6]; Control mice, 30 min): 0.71 ± 0.31 % ID/g
- Biodistribution Blood ([6]; Control mice, 1 h): 0.31 ± 0.04 % ID/g
- Biodistribution Bone ([6]; Control mice, 1 h): 2.57 ± 0.64 % ID/g
- Biodistribution Brain ([6]; Control mice, 1 h): 0.11 ± 0.02 % ID/g
- Biodistribution Heart ([6]; Control mice, 1 h): 0.19 ± 0.02 % ID/g
- Biodistribution Kidney ([6]; Control mice, 1 h): 2.20 ± 0.25 % ID/g
- Biodistribution Liver ([6]; Control mice, 1 h): 2.59 ± 0.49 % ID/g
- Biodistribution Lung ([6]; Control mice, 1 h): 0.31 ± 0.06 % ID/g
- Biodistribution Muscle ([6]; Control mice, 1 h): 0.27 ± 0.18 % ID/g
- Biodistribution Blood ([6]; Control mice, 2 h): 0.27 ± 0.22 % ID/g
- Biodistribution Bone ([6]; Control mice, 2 h): 5.59 ± 4.20 % ID/g
- Biodistribution Brain ([6]; Control mice, 2 h): 0.07 ± 0.03 % ID/g
- Biodistribution Heart ([6]; Control mice, 2 h): 0.08 ± 0.02 % ID/g
- Biodistribution Kidney ([6]; Control mice, 2 h): 0.80 ± 0.27 % ID/g
- Biodistribution Liver ([6]; Control mice, 2 h): 0.74 ± 0.23 % ID/g
- Biodistribution Lung ([6]; Control mice, 2 h): 0.15 ± 0.03 % ID/g
- Biodistribution Muscle ([6]; Control mice, 2 h): 0.34 ± 0.27 % ID/g
- Biodistribution Blood ([6]; LPS treated mice, 5 min): 3.69 ± 0.38 % ID/g
- Biodistribution Bone ([6]; LPS treated mice, 5 min): 1.59 ± 0.15 % ID/g
- Biodistribution Brain ([6]; LPS treated mice, 5 min): 1.81 ± 0.09 % ID/g
- Biodistribution Heart ([6]; LPS treated mice, 5 min): 2.03 ± 0.06 % ID/g
- Biodistribution Kidney ([6]; LPS treated mice, 5 min): 26.7 ± 4.1 % ID/g
- Biodistribution Liver ([6]; LPS treated mice, 5 min): 24.6 ± 3.1 % ID/g
- Biodistribution Lung ([6]; LPS treated mice, 5 min): 4.32 ± 0.32 % ID/g
- Biodistribution Muscle ([6]; LPS treated mice, 5 min): 1.64 ± 0.09 % ID/g
- Biodistribution Blood ([6]; LPS treated mice, 30 min): 2.09 ± 0.35 % ID/g
- Biodistribution Bone ([6]; LPS treated mice, 30 min): 3.70 ± 1.20 % ID/g
- Biodistribution Brain ([6]; LPS treated mice, 30 min): 0.52 ± 0.15 % ID/g
- Biodistribution Heart ([6]; LPS treated mice, 30 min): 1.02 ± 0.16 % ID/g
- Biodistribution Kidney ([6]; LPS treated mice, 30 min): 10.9 ± 2.8 % ID/g
- Biodistribution Liver ([6]; LPS treated mice, 30 min): 7.06 ± 0.28 % ID/g
- Biodistribution Lung ([6]; LPS treated mice, 30 min): 1.84 ± 0.27 % ID/g
- Biodistribution Muscle ([6]; LPS treated mice, 30 min): 1.06 ± 0.40 % ID/g
- Biodistribution Blood ([6]; LPS treated mice, 1 h): 0.86 ± 0.09 % ID/g
- Biodistribution Bone ([6]; LPS treated mice, 1 h): 4.30 ± 0.90 % ID/g
- Biodistribution Brain ([6]; LPS treated mice, 1 h): 0.19 ± 0.03 % ID/g
- Biodistribution Heart ([6]; LPS treated mice, 1 h): 0.41 ± 0.10 % ID/g
- Biodistribution Kidney ([6]; LPS treated mice, 1 h): 3.95 ± 0.53 % ID/g
- Biodistribution Liver ([6]; LPS treated mice, 1 h): 2.63 ± 0.52 % ID/g
- Biodistribution Lung ([6]; LPS treated mice, 1 h): 0.73 ± 0.17 % ID/g
- Biodistribution Muscle ([6]; LPS treated mice, 1 h): 0.78 ± 0.47 % ID/g
- Biodistribution Blood ([6]; LPS treated mice, 2 h): 0.23 ± 0.05 % ID/g
- Biodistribution Bone ([6]; LPS treated mice, 2 h): 3.77 ± 1.41 % ID/g
- Biodistribution Brain ([6]; LPS treated mice, 2 h): 0.07 ± 0.03 % ID/g
- Biodistribution Heart ([6]; LPS treated mice, 2 h): 0.12 ± 0.04 % ID/g
- Biodistribution Kidney ([6]; LPS treated mice, 2 h): 0.91 ± 0.63 % ID/g
- Biodistribution Liver ([6]; LPS treated mice, 2 h): 0.42 ± 0.15 % ID/g
- Biodistribution Lung ([6]; LPS treated mice, 2 h): 0.18 ± 0.09 % ID/g
- Biodistribution Muscle ([6]; LPS treated mice, 2 h): 0.23 ± 0.13 % ID/g
- activity in the blood that was parent compound ([7]; 5 minutes post injection): 40.3%
- major (very polar) metabolite, share of the activity in blood ([7]; 5 minutes post injection, HPLC): 50%
- percent parent compound ([7]; plasma, 30 minutes post injection): 20.2%
- activity recovered from lysed whole blood observed as parent ([8]; 1 h): approximately 80%
- recovered activity still in the form of parent ([8]; 2 h): approximately 75%
Compound: Cc1cc(N)nc(CC(C)[18F])c1 (stereo not shown) [[^18F]compound 14]
- tracer uptake, LPS-treated vs non-treated mice ([6]; LPS 10 mg/kg intravenously, Table 4 and FIG. 11): greater uptake
- tracer accumulation in lungs (microPET) [9]: accumulated in the lungs of the LPS-treated mouse, but not in the control mouse

More lines, now with the values behind:

Compound: Cc1ccnc(N)c1 [2-amino-4-methylpyridine]
- blocking of increased uptake of [18F]compound 14 ([1]; blocker 10 mg/kg intravenously): failed to block

Compound: CC(=N)NCc1cccc(CN)c1 [1400 W, N-(3-(aminomethyl)benzyl)acetamidine]
- tracer uptake in the lungs and blood blocked ([1]; blocker 5 mg/kg i.v. immediately before [18F]compound 14, 1 h post injection): 32%

Compound: Nc1ncc2[nH]cnc2n1 [Compound 2-AP, 2-aminopurine, reference compound]
- IC50 ([2]; reported value for standards): 0.17 µM
- IC50 [3, 10]: 0.108 ± 0.0345 µM

Compound: Cc1cc(N)nc(CCCF)c1 [Compound 52]
- IC50 [4]: 1.43 ± 0.158 µM
- IC50 [5]: 0.514 ± 0.0833 µM
- IC50 [3, 11]: 0.0576 ± 0.0053 µM
- IC50 [3, 12]: < 0.19 µM
- IC50 [3, 13]: 0.0576 ± 0.0053 µM

Compound: Cc1cc(N)nc(CC(C)CCF)c1 (stereo not shown) [DZ(IV)-93]
- IC50 [3, 11]: 0.731 ± 0.087 µM

Compound: Cc1cc(N)nc(CCCCF)c1 [DZ(IV)-120]
- IC50 [3, 11]: 0.17 ± 0.0265 µM

Compound: CCSC(=N)N [SEITU, S-ethylisothiourea, reference compound]
- Ki ([2]; reported value): 0.032 µM
- IC50 [3, 10]: 0.0305 ± 0.0046 µM
